Measurements: patent US20240156996A1, “BIOCOMPATIBLE RADIONUCLIDE-CONTAINING COMPOSITIONS AND METHODS OF USE” (priority 2022, published 2024)

Test: Encapsulation efficiency of 225Ac within PLGA nanoparticles (γ-ray spectroscopy after washing)
Assay type: physicochemical
Conditions: 95:5, 90:10, 75:25 MeOH:DI H2O; FIG. 2
Procedure: A double-emulsion solvent evaporation method was adapted for the synthesis of PLGA-chelator compound radioisotope complex. The main differences include: (1) using a cup-horn sonicator to generate emulsions and (2) decreasing the reagent volumes to minimize the generation of radiological waste. In a typical synthesis, 100 μL of PLGA dissolved in EtOAc at 40 mg/mL were mixed with 10 μL of 225Ac-chelator compound radioisotope complex in a polar solution (i.e., DI H2O, MeOH, or a mixture of both) within an Eppendorf tube. This mixture was sonicated for 30 s in a cup-horn sonicator to generate a water/oil emulsion. […]
As described above, PLGA nanoparticles were synthesized encapsulating free ^225Ac or ^225Ac-BLPhen complex in a methanol/deionized water (MeOH/DI H2O) mixture. […] The encapsulation efficiency of ^225Ac was determined after washing the PLGA nanoparticle suspensions three times with DI H2O. […] The PLGA nanoparticle suspension, the supernatant, and the Eppendorf tube used for sonication were assayed using γ-ray spectroscopy on a high purity germanium detector coupled to a PC-based multichannel analyzer to account for total radioactivity distribution. […] Energy and efficiency calibrations were determined by γ-ray sources traceable to the National Institute of Standards and Technology.

[225Ac] [^225Ac, actinium-225]
effect of increasing the water content in the MeOH/DI H2O mixture on encapsulation efficiency within PLGA nanoparticles: decreased the encapsulation efficiency
